Reference: patent US10626077B2, “Salvianolic acid compound T, preparation method therefor, and use thereof” (TASLY PHARMACEUTICAL GROUP CO., LTD., priority 2013, dated 2020)

Legend:
[1] = DPPH free-radical scavenging reaction
Description: Absorbance of the reaction solution was measured at 517 nm. In this study, vitamin C was regarded as a positive control. Free-radical scavenging rate was calculated in accordance with the following equation: Free-radical scavenging rate (%)=[1−Asample/Acontrol)/Acontrol]×100% Wherein, the Asample means the absorbance of the tested samples, and Acontrol means the absorbance of blank control.

[2] = tested on: rats with myocardial infarction induced by coronary artery ligation; experiment: Blood biochemical index of rats with myocardial infarction induced by coronary artery ligation; type: in vivo, SD rats; conditions: for CK / CK-MB / LD / MDA / SOD: serum
[3] = tested on: rats with myocardial infarction induced by coronary artery ligation; experiment: J point of ECG in rats with myocardial infarction induced by coronary artery ligation; type: in vivo, SD rats
Description: […] Aspirin: 30 mg/kg body-weight. Clean male SD rats were taken and placed in groups randomly according to the body-weight, including pseudo operation group (distilled water), model group (distilled water), aspirin group, (S)-salvianolic acid T low-dose group, (S)-salvianolic acid T high-dose group, and there were 10 rats in each group. Each group of rats were administrated by gastric administration once a day, continuously for 10 days. […] Recording standard II lead ECG at 5 minutes before surgery, 0 s, 1 min, 5 min, 15 min, 1 h, 4 h after the ligation, to investigate the changes of J point of ECG.

[4] = tested on: rats with myocardial infarction induced by coronary artery ligation; experiment: Myocardial infarction rate (TTC staining) after coronary artery ligation; type: in vivo, SD rats; conditions: for myocardial infarction rate: compared with the model group, P<0.05
Description: Clean male SD rats were taken and placed in groups randomly according to the body-weight, including pseudo operation group (distilled water), model group (distilled water), aspirin group, (S)-salvianolic acid T low-dose group, (S)-salvianolic acid T high-dose group, and there were 10 rats in each group. Each group of rats were administrated by gastric administration once a day, continuously for 10 days. […] Recording standard II lead ECG at 5 minutes before surgery, 0 s, 1 min, 5 min, 15 min, 1 h, 4 h after the ligation, to investigate the changes of J point of ECG. Taking out the heart immediately after the end of the experiment, washing away the blood with normal saline, cutting off the atrium and the bottom of the blood vessels, weighing the mass of the ventricle, cutting the ventricle into 5 pieces on average along the atrioventricular groove and putting them into 1% (w/v) TTC solution, dyeing in the water bath at a constant temperature of 37 °C for 5 min, taking digital photos firstly after taking them out, then separating the unstained parts (that is, the infarct parts) and weighing to calculate the percentage of them in the mass of total ventricular (myocardial infarction percentage), and performing t test with ischemia model group. The formula for calculating the infarct percentage is as follows: Infarct percentage (%)=(the mass of pale areas/the mass of the ventricle)×100%

[5] = tested on: L929 cells induced by TGF-β1; experiment: Inhibition of L929 cell proliferation induced by TGF-β1 (MTT); type: cell-based; conditions: Mus musculus, L929, 72 h, 2 μg/L TGF-β1, 72 h, MTT method
Description: L929 cells with a cell population of 5×10^7/L adjusted by DMEM culture solution containing 10% fetal bovine serum were seeded into 96 well plate, cultured for 24 h. Supplementing the same culture medium containing 2 μg/L TGF-β1 and (S)/(R)-salvianolic acid T of different concentrations. There were 6 multiple pores in each group, final concentration of (S)/(R)-salvianolic acid T was set as 0, 1, 3, 10, 20, 40, 80, 150 μmol/L. Removing medium after being cultured for 72 h, assaying the cell activity by MTT method.

[6] = Determination of reducing capacity (potassium ferricyanide / ferric chloride, absorbance at 700 nm)
Description: 0.5 ml of 200 mM phosphate buffer (pH6.8) containing different concentrations of the (S)/(R)-salvianolic acid T and 0.5 ml of 1.0% (w/v) potassium ferricyanide solution were sucked respectively and cooled on an ice bath after being heated on a water bath (50[…]) for 20 min. 0.5 ml of 10% trichloroacetic acid solution was added and centrifuged at […] for 10 min. 1.0 ml of the resulting supernatant was taken, into which 1.0 ml of distilled water and 0.2 ml of 0.1% (w/v) ferric chloride solution were added, stood still for 10 min and the absorbance was measured at 700 nm. Meanwhile, the blank experiment was carried out. Vitamin C is a strongly reducing substance, acting as positive control in this study. Reducing capacity of the sample is represented by subtracting the absorbance of the blank control from the absorbance of the tested sample. Thus, it means the higher absorbance, the stronger reducing capacity.

[7] = tested on: mice pulmonary fibrosis induced by bleomycin; experiment: Anti-pulmonary fibrosis experiment in mice induced by bleomycin; type: in vivo, Kunming mice; conditions: 3 weeks
Description: Dividing the 40 mice into 4 groups: □ normal control group, given nasal dripping of normal saline, drenched with normal saline; □ model control group:given nasal dripping of bleomycin, drenched with normal saline; □(S)-salvianolic acid T group (16 mg/kg): given nasal dripping of bleomycin, drenched with (S)-salvianolic acid T solution; □(R)-salvianolic acid T group (16 mg/kg): given nasal dripping of bleomycin, drenched with (R)-salvianolic acid T solution; 10 mice in each group.
On the first day of the experiment, the mice were anesthetized with chloral hydrate, each mouse was given disposable nasal dripping of 50 μg bleomycin to establish the pulmonary fibrosis model. On the second day of the experiment, two treatment groups were drenched with (S)/(R)-salvianolic acid T, the model group and the normal group were drenched with equal volume of normal saline, once each day, 3 consecutive weeks. On the 21th day of the experiment, serum was separated from the blood collected from the orbital vein to detect TGF-β1, the mice were killed to take lungs, ground with double distilled water (the ratio of lungs and double distilled water was 1:5 (w/v)) into tissue homogenate, centrifuged to detect the MDA, superoxide dismutase (SOD), catalase (CAT), peroxidase (POD) in the tissues.

[8] = sample 0.625 μg/ml, 100 μM DPPH, 20 min, 25° C.
[9] = high-dose group, dosage 10 mg/kg
[10] = compared with positive control vitamin C
[11] = 16 mg/kg, lung tissue homogenate

What does the source list for `O=C1O[C@H]([C@@H](O)CO)C(O)=C1O` [Vitamin C, reference compound]?
Free-radical scavenging rate [1, 8]: 8.02 ± 0.47%; Free-radical scavenging rate ([1]; sample 1.25 μg/ml): 15.56 ± 1.81%; Free-radical scavenging rate ([1]; sample 2.5 μg/ml): 21.32 ± 1.89%; Free-radical scavenging rate ([1]; sample 5 μg/ml): 56.29 ± 5.93%; Free-radical scavenging rate ([1]; sample 10 μg/ml): 79.51 ± 7.26%

What does the source list for `CC(=O)Oc1ccccc1C(=O)O` [Aspirin, reference compound]?
Na^+—K^+-ATPase ([2]; aspirin group, dosage 30 mg/kg): 0.005 ± 0.001 μmolPi/10^7 RBC/h; CK ([2]; aspirin group, dosage 30 mg/kg): 1.01 ± 0.16 U/ml; CK-MB ([2]; aspirin group, dosage 30 mg/kg): 841.9 ± 20.3 U/L; LD ([2]; aspirin group, dosage 30 mg/kg): 1.75 ± 0.17 mmol/L; MDA ([2]; aspirin group, dosage 30 mg/kg): 6.84 ± 0.97 nmol/mL; SOD ([2]; aspirin group, dosage 30 mg/kg): 221.1 ± 24.7 U/ml; J point ([3]; aspirin group, dosage 30 mg/kg, gastric once a day for 10 days, before operation): −0.012 ± 0.005 mv; J point ([3]; aspirin group, dosage 30 mg/kg, 1 min after operation): 0.172 ± 0.057 mv; J point ([3]; aspirin group, dosage 30 mg/kg, 5 min after operation): 0.184 ± 0.024 mv; J point ([3]; aspirin group, dosage 30 mg/kg, 15 min after operation): 0.166 ± 0.025 mv; J point ([3]; aspirin group, dosage 30 mg/kg, 1 h after operation): 0.169 ± 0.036 mv; J point ([3]; aspirin group, dosage 30 mg/kg, 4 h after operation): 0.172 ± 0.021 mv; myocardial infarction rate ([4]; aspirin group (30 mg/kg)): significantly reduce the myocardial infarction rate

For `O=C(/C=C/c1ccc(O)c(O)c1/C(=C\c1ccc(O)c(O)c1)C(=O)O)O[C@@H](Cc1ccc(O)c(O)c1)C(=O)O` [(S)-salvianolic acid T], which “Na^+—K^+-ATPase” value [2, 9] is on record?
The value was 0.005 ± 0.006 μmolPi/10^7 RBC/h.

What about the “Na^+—K^+-ATPase” value ([2]; low-dose group, dosage 5 mg/kg) of the same compound?
The value was 0.004 ± 0.001 μmolPi/10^7 RBC/h.

And the CK [2, 9]?
Its CK is 0.88 ± 0.22 U/ml.

What about the CK-MB [2, 9] of the same compound?
Its CK-MB is 846.7 ± 144.2 U/L.

What about the LD [2, 9] of the same compound?
The LD was 1.65 ± 0.24 mmol/L.

What about the MDA [2, 9] of the same compound?
Its MDA is 6.72 ± 1.54 nmol/mL.

And the SOD [2, 9]?
The SOD was 241.7 ± 19.8 U/ml.

And the CK ([2]; low-dose group, dosage 5 mg/kg)?
The CK was 1.18 ± 0.29 U/ml.

What about the CK-MB ([2]; low-dose group, dosage 5 mg/kg) of the same compound?
The CK-MB was 970.9 ± 225.1 U/L.

And the LD ([2]; low-dose group, dosage 5 mg/kg)?
Its LD is 1.67 ± 0.23 mmol/L.

What about the MDA ([2]; low-dose group, dosage 5 mg/kg) of the same compound?
The MDA was 7.46 ± 1.07 nmol/mL.

What about the SOD ([2]; low-dose group, dosage 5 mg/kg) of the same compound?
Its SOD is 220.3 ± 32.6 U/ml.

What about the J point ([3]; high-dose group, dosage 10 mg/kg, gastric once a day for 10 days, before operation) of the same compound?
Its J point is −0.014 ± 0.005 mv.

What about the J point ([3]; high-dose group, dosage 10 mg/kg, 1 min after operation) of the same compound?
Its J point is 0.169 ± 0.033 mv.

What about the J point ([3]; high-dose group, dosage 10 mg/kg, 5 min after operation) of the same compound?
Its J point is 0.146 ± 0.031 mv.

And the J point ([3]; high-dose group, dosage 10 mg/kg, 15 min after operation)?
Its J point is 0.160 ± 0.027 mv.

And the J point ([3]; high-dose group, dosage 10 mg/kg, 1 h after operation)?
The J point was 0.170 ± 0.014 mv.

And the J point ([3]; high-dose group, dosage 10 mg/kg, 4 h after operation)?
The J point was 0.153 ± 0.028 mv.

And the J point ([3]; low-dose group, dosage 5 mg/kg, gastric once a day for 10 days, before operation)?
Its J point is −0.011 ± 0.003 mv.

What about the J point ([3]; low-dose group, dosage 5 mg/kg, 1 min after operation) of the same compound?
The J point was 0.176 ± 0.050 mv.

What about the J point ([3]; low-dose group, dosage 5 mg/kg, 5 min after operation) of the same compound?
The J point was 0.204 ± 0.010 mv.

What about the J point ([3]; low-dose group, dosage 5 mg/kg, 15 min after operation) of the same compound?
Its J point is 0.185 ± 0.096 mv.

And the J point ([3]; low-dose group, dosage 5 mg/kg, 1 h after operation)?
Its J point is 0.206 ± 0.036 mv.

What about the J point ([3]; low-dose group, dosage 5 mg/kg, 4 h after operation) of the same compound?
Its J point is 0.194 ± 0.042 mv.

What about the “free-radical scavenging compared with vitamin C” value [1, 10] of the same compound?
The value was “much higher free-radical scavenging than that of the vitamin C”.

What about the Free-radical scavenging rate [1, 8] of the same compound?
Its Free-radical scavenging rate is 10.32 ± 0.81%.

What about the Free-radical scavenging rate ([1]; sample 1.25 μg/ml) of the same compound?
The Free-radical scavenging rate was 28.77 ± 2.26%.

And the Free-radical scavenging rate ([1]; sample 2.5 μg/ml)?
Its Free-radical scavenging rate is 44.22 ± 1.95%.

And the Free-radical scavenging rate ([1]; sample 5 μg/ml)?
The Free-radical scavenging rate was 86.01 ± 8.92%.

What about the Free-radical scavenging rate ([1]; sample 10 μg/ml) of the same compound?
The Free-radical scavenging rate was 98.97 ± 5.41%.

What about the IC50 [5] of the same compound?
Its IC50 is 26.1 µM.

And the “reducing capacity compared with vitamin C” value [6, 10]?
Its value is “much stronger than that of vitamin C”.

What about the “reducing capacity (absorbance at 700 nm minus blank control)” value ([6]; sample 3.125 μg/ml) of the same compound?
The value was 0.157 ± 0.027.

What about the “reducing capacity (absorbance at 700 nm minus blank control)” value ([6]; sample 6.25 μg/ml) of the same compound?
The value was 0.215 ± 0.011.

And the “reducing capacity (absorbance at 700 nm minus blank control)” value ([6]; sample 12.5 μg/ml)?
Its value is 0.039 ± 0.012.

And the “reducing capacity (absorbance at 700 nm minus blank control)” value ([6]; sample 25 μg/ml)?
Its value is 0.771 ± 0.023.

And the “reducing capacity (absorbance at 700 nm minus blank control)” value ([6]; sample 50 μg/ml)?
The value was 1.573 ± 0.036.

What about the “effect on preventing acute myocardial infarction induced by coronary artery ligation” value ([4]; high-dose group compared with aspirin group, FIG. 11 heart biopsy) of the same compound?
Its value is “equal effect”.

What about the myocardial infarction rate ([4]; high-dose group) of the same compound?
Its myocardial infarction rate is “significantly reduce the myocardial infarction rate”.

And the “Serum TGF-β1” value ([7]; 16 mg/kg drenched once each day, day 21)?
Its value is 263 ± 35 ng/L.

And the CAT [7, 11]?
Its CAT is 24.9 ± 2.3 U/g.

What about the MDA [7, 11] of the same compound?
Its MDA is 324 ± 33 µg/g.

What about the POD [7, 11] of the same compound?
Its POD is 15.3 ± 2.1 U/g.

And the SOD [7, 11]?
Its SOD is 57.3 ± 4.9 U/g.

And the “Tissue TGF-β1” value [7, 11]?
Its value is 541 ± 51 pg/g.
